Laboratory results: patent US20060128721A1, “Novel formulations of opioid-based treatments of pain comprising substituted 1,4-di-piperidin-4-yl-piperazine derivatives” (priority 2003, published 2006)

Legend:
[1] = target: T1, cloned human h-NK1 receptors expressed in CHO cells (Homo sapiens, UniProt P25103); test: Binding experiment for h-NK1 receptors ([3H]-Substance P displacement); details: read-out: h-NK1 pIC50 (converted)
T1 construct: expressed in transfected cells; host or cells: CHO cells
T1 sequence (P25103 whole entry): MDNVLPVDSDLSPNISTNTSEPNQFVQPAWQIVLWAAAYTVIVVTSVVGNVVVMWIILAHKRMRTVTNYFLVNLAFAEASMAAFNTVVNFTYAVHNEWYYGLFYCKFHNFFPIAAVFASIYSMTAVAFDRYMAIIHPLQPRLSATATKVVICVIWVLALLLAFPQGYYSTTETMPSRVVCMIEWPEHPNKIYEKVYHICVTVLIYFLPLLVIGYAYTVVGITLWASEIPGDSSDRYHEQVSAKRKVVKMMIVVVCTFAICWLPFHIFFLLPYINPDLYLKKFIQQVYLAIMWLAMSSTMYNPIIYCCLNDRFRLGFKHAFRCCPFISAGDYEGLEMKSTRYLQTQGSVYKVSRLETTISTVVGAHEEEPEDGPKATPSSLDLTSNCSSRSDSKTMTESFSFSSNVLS
Experimental: (§1) The compounds according to the invention were investigated for interaction with various neurotransmitter receptors, ion channels and transporter binding sites using the radioligand binding technique. Membranes from tissue homogenates or from cells, expressing the receptor or transporter of interests, were incubated with a radioactively labelled substance ([^3H]- or [^125I] ligand) to label a particular receptor. […] Following incubation, labelled membranes were harvested and rinsed with excessive cold buffer to remove non-bound radioactivity by rapid filtration under suction. Membrane bound radioactivity was counted in a scintillation counter and results were expressed in counts per minute (cpm).
(§2) The compounds were dissolved in DMSO and tested at 10 concentrations ranging from 10^−10 to 10^−5 M.
(§3) The ability of the compounds according to the invention to displace [^3H]-Substance P from cloned human h-NK1 receptors expressed in CHO cells, to displace [^3H]-SR-48968 from cloned human h-NK2 receptors expressed in Sf9 cells, and to displace [^3H]-SR-142801 from cloned human h-NK3 receptors expressed in CHO cells was evaluated.

[2] = target: T2, cloned human h-NK2 receptors expressed in Sf9 cells (Homo sapiens, UniProt P21452); test: Binding experiment for h-NK2 receptors ([3H]-SR-48968 displacement); details: [3H]-SR-48968, Sf9 cells; read-out: h-NK2 pIC50 (converted)
T2 construct: expressed in transfected cells; host or cells: Sf9 cells
T2 sequence (P21452 1-398): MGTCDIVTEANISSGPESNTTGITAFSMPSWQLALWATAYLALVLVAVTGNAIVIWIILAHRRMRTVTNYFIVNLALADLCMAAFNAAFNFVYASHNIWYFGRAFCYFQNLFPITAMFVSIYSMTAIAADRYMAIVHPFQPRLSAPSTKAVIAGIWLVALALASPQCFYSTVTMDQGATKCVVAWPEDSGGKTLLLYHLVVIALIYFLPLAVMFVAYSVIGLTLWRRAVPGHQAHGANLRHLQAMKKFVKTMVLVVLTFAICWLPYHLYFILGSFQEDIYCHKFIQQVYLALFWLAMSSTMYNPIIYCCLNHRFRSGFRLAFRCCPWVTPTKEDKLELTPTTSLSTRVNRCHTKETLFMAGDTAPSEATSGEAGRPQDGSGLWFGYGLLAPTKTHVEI
Experimental: as §1, §2, §3

[3] = target: T3, cloned human h-NK3 receptors expressed in CHO cells (Homo sapiens, UniProt P29371); test: Binding experiment for h-NK3 receptors ([3H]-SR-142801 displacement); details: [3H]-SR-142801, CHO cells; read-out: h-NK3 pIC50 (converted)
T3 construct: expressed in transfected cells; host or cells: CHO cells
T3 sequence (P29371 1-465): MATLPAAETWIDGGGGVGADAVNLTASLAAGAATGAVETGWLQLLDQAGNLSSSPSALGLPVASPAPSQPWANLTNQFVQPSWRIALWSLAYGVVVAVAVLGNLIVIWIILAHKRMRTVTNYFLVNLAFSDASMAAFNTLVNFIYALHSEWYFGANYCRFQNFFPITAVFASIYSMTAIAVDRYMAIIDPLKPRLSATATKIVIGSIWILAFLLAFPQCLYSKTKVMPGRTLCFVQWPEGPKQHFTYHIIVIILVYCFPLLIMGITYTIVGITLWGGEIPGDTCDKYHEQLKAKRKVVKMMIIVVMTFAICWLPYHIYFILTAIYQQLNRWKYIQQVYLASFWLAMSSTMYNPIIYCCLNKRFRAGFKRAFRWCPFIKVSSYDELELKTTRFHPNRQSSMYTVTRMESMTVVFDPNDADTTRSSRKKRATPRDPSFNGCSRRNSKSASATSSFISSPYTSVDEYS
Experimental: as §1, §2, §3

Row | Compound | IC50 [1] [nM] | IC50 [2] [nM] | IC50 [3] [nM]
1 | O=C(c1ccccn1)N1CCC(N2CCN([C@H]3CCN(C(=O)c4cc(C(F)(F)F)cc(C(F)(F)F)c4)[C@H](Cc4ccccc4)C3)CC2)CC1 [Compound 79] | 6.31 | 316 | 398
2 | CC(C)(C)OC(=O)N1CCCCC1C(=O)N1CCC(N2CCN([C@H]3CCN(C(=O)c4cc(C(F)(F)F)cc(C(F)(F)F)c4)[C@H](Cc4ccccc4)C3)CC2)CC1 (some centres unmarked) [Compound 89] | 2.51 | 631 | 631
3 | Cc1cccc(C(=O)N2CCC(N3CCN([C@H]4CCN(C(=O)c5cc(C(F)(F)F)cc(C(F)(F)F)c5)[C@H](Cc5ccccc5)C4)CC3)CC2)c1 [Compound 37] | 3.98 | 501 | 251
4 | O=C(c1cc(C(F)(F)F)cc(C(F)(F)F)c1)N1CCC(N2CCN(C3CCNCC3)CC2)CC1Cc1ccccc1 (centres unmarked) [Compound 2] | 2.51 | 1580 | 6310
5 | O=C(c1cc(C(F)(F)F)cc(C(F)(F)F)c1)N1CCC(N2CCN(C3CCN(C(=O)n4ccnc4)CC3)CC2)CC1Cc1ccccc1 (centres unmarked) [Compound 12] | 0.794 | 1000 | 794
6 | Cc1oncc1C(=O)N1CCC(N2CCN(C3CCN(C(=O)c4cc(C(F)(F)F)cc(C(F)(F)F)c4)C(Cc4ccccc4)C3)CC2)CC1 (centres unmarked) [Compound 4] | 1.58 | 6310 | 200
7 | O=C(c1ccccc1O)N1CCC(N2CCN([C@H]3CCN(C(=O)c4cc(C(F)(F)F)cc(C(F)(F)F)c4)[C@H](Cc4ccccc4)C3)CC2)CC1 [Compound 36] | 1 | 794 | 794
8 | COc1cc(CC(=O)N2CCC(N3CCN([C@H]4CCN(C(=O)c5cc(C(F)(F)F)cc(C(F)(F)F)c5)[C@H](Cc5ccccc5)C4)CC3)CC2)cc(OC)c1OC [Compound 106] | 1 | 1000 | 501
9 | Cc1cc(C)cc(CN2CCC(N3CCN([C@H]4CCN(C(=O)c5cc(C(F)(F)F)cc(C(F)(F)F)c5)[C@H](Cc5ccccc5)C4)CC3)CC2)c1 [Compound 22] | 0.398 | 631 | 316
10 | O=C(c1cc(C(F)(F)F)cc(C(F)(F)F)c1)N1CC[C@H](N2CCN(C3CCN(c4ncccn4)CC3)CC2)C[C@H]1Cc1ccccc1 [Compound 16] | 1 | 501 | 158
11 | O=C(C(c1ccccc1)N1CCCC1)N1CCC(N2CCN(C3CCN(C(=O)c4cc(C(F)(F)F)cc(C(F)(F)F)c4)C(Cc4ccccc4)C3)CC2)CC1 (centres unmarked) [Compound 113] | 1 | 398 | 398
12 | O=C(c1cc(F)cc(F)c1)N1CCC(N2CCN([C@H]3CCN(C(=O)c4cc(C(F)(F)F)cc(C(F)(F)F)c4)[C@H](Cc4ccccc4)C3)CC2)CC1 [Compound 51] | 1.26 | 631 | 398
13 | COc1cc(C(=O)N2CCC(N3CCN([C@H]4CCN(C(=O)c5cc(C(F)(F)F)cc(C(F)(F)F)c5)[C@H](Cc5ccccc5)C4)CC3)CC2)cc(OC)c1OC [Compound 65] | 3.98 | 631 | 251
14 | O=C(C(c1ccccc1)N1CCOCC1)N1CCC(N2CCN([C@H]3CCN(C(=O)c4cc(C(F)(F)F)cc(C(F)(F)F)c4)[C@H](Cc4ccccc4)C3)CC2)CC1 (some centres unmarked) [Compound 116] | 2.51 | 794 | 158
15 | O=C(c1cccc(Cl)c1)N1CCC(N2CCN([C@H]3CCN(C(=O)c4cc(C(F)(F)F)cc(C(F)(F)F)c4)[C@H](Cc4ccccc4)C3)CC2)CC1 [Compound 32] | 1.58 | 631 | 158
16 | Cc1nnsc1C(=O)N1CCC(N2CCN([C@@H]3CCN(C(=O)c4cc(C(F)(F)F)cc(C(F)(F)F)c4)[C@H](Cc4ccccc4)C3)CC2)CC1 [Compound 139] | 1.58 | 794 | 316

Row | Compound | IC50 [1] [nM] | IC50 [2] [nM] | IC50 [3] [nM]
17 | Cc1cc(C)cc(C(=O)N2CCC(N3CCN(C4CCN(C(=O)c5cc(C(F)(F)F)cc(C(F)(F)F)c5)C(Cc5ccccc5)C4)CC3)CC2Cc2ccccc2)c1 (single isomer, unassigned) [Compound 10] | 50.1 | 398 | 631
18 | O=C(c1cc(C(F)(F)F)cc(C(F)(F)F)c1)N1CCC(N2CCN(C3CCN(Cc4cc(C(F)(F)F)cc(C(F)(F)F)c4)CC3)CC2)CC1Cc1ccccc1 (centres unmarked) [Compound 26] | 39.8 | 1000 | 1000
19 | O=C(c1ccsc1)N1CCC(N2CCN(C3CCN(C(=O)c4cc(C(F)(F)F)cc(C(F)(F)F)c4)C(Cc4ccccc4)C3)CC2)CC1 (centres unmarked) [Compound 5] | 0.1 | 794 | 501
20 | Cc1cccc(C)c1NC(=O)CN1CCC(N2CCN([C@H]3CCN(C(=O)c4cc(C(F)(F)F)cc(C(F)(F)F)c4)[C@H](Cc4ccccc4)C3)CC2)CC1 [Compound 97] | 0.316 | 501 | 398
21 | O=C(c1snnc1CO)N1CCC(N2CCN(C3CCN(C(=O)c4cc(C(F)(F)F)cc(C(F)(F)F)c4)C(Cc4ccccc4)C3)CC2)CC1 (centres unmarked) [Compound 144] |  | 1260 | 631
22 | O=C(c1cc(F)c(F)cc1F)N1CCC(N2CCN([C@H]3CCN(C(=O)c4cc(C(F)(F)F)cc(C(F)(F)F)c4)[C@H](Cc4ccccc4)C3)CC2)CC1 [Compound 62] | 0.631 | 398 | 251
23 | Cc1ccc(O)c(C(=O)N2CCC(N3CCN([C@H]4CCN(C(=O)c5cc(C(F)(F)F)cc(C(F)(F)F)c5)[C@H](Cc5ccccc5)C4)CC3)CC2)c1 [Compound 56] | 1 | 501 | 200
24 | COCC(=O)N1CCC(N2CCN([C@H]3CCN(C(=O)c4cc(C(F)(F)F)cc(C(F)(F)F)c4)[C@H](Cc4ccccc4)C3)CC2)CC1 [Compound 104] | 0.631 | 1580 | 1580
25 | N#Cc1cccc(C(=O)N2CCC(N3CCN([C@H]4CCN(C(=O)c5cc(C(F)(F)F)cc(C(F)(F)F)c5)[C@H](Cc5ccccc5)C4)CC3)CC2)c1 [Compound 39] | 0.794 | 1000 | 1000
26 | CC(C)(C)OC(=O)N1Cc2ccccc2C[C@H]1C(=O)N1CCC(N2CCN([C@H]3CCN(C(=O)c4cc(C(F)(F)F)cc(C(F)(F)F)c4)[C@H](Cc4ccccc4)C3)CC2)CC1 [Compound 90] | 31.6 | 316 | 126
27 | Cc1nnsc1C(=O)N1CCC(N2CCN([C@@H]3CCN(C(=O)c4cc(C(F)(F)F)cc(C(F)(F)F)c4)[C@@H](Cc4ccccc4)C3)CC2)CC1 [Compound 141] | 7.94 | 3980 | 3980
28 | Cc1nnsc1C(=O)N1CCC(N2CCN([C@H]3CCN(C(=O)c4cc(C(F)(F)F)cc(C(F)(F)F)c4)[C@@H](Cc4ccccc4)C3)CC2)CC1 [Compound 140] | 3.16 | 3980 | 5010
29 | Cn1cccc1CN1CCC(N2CCN(C3CCN(C(=O)c4cc(C(F)(F)F)cc(C(F)(F)F)c4)C(Cc4ccccc4)C3)CC2)CC1 (centres unmarked) [Compound 9] | 1.26 | 631 | 501
30 | O=C(c1cccnc1)N1CCC(N2CCN([C@H]3CCN(C(=O)c4cc(C(F)(F)F)cc(C(F)(F)F)c4)[C@H](Cc4ccccc4)C3)CC2)CC1 [Compound 80] | 0.501 | 794 | 251
31 | COc1ccc(C)cc1S(=O)(=O)N1CCC(N2CCN(C3CCN(C(=O)c4cc(C(F)(F)F)cc(C(F)(F)F)c4)C(Cc4ccccc4)C3)CC2)CC1 (centres unmarked) [Compound 119] | 25.1 | 1000 | 1000
32 | Cc1cc(C)cc(C(=O)N2CCC(N3CCN(C4CCN(C(=O)c5cc(C(F)(F)F)cc(C(F)(F)F)c5)C(Cc5ccccc5)C4)CC3)CC2Cc2ccccc2)c1 (single isomer, unassigned) [Compound 11] | 39.8 | 631 | 251
